Laboratory results reported in US9586949B2, “Aza-heteroaryl compounds as PI3K-gamma inhibitors” (Incyte Corporation, priority 2015, dated 2017).

How the values were obtained:
[1] = molecular target: PI3Kγ (p110γ) Recombinant Human Protein (Homo sapiens (Human), UniProt P48736); assay: PI3K-γ Scintillation Proximity Assay; format: biochemical; conditions: 20 μM PIP2, 2 μM ATP, 13 nM PI3Kγ, 120 min; read-out: PI3K-gamma SPA IC50
Outline: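 Radiometric SPA readout: […] bound to WGA beads after overnight shaking, IC50 derived from % activity of DMSO control. Reaction used human p110γ, 2 μM ATP, 20 μM PIP2, pH 6.7 MOPS buffer with MgCl2, DTT, CHAPS, 2% DMSO, room temperature.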

[2] = molecular target: PI3Kδ (p110δ/p85α) Recombinant Human Protein (Homo sapiens (Human), UniProt O00329); assay: PI3Kδ Scintillation Proximity Assay; format: biochemical; conditions: 20 μM PIP2, 2 μM ATP, 3.4 nM PI3Kδ, 120 min; read-out: PI3K-delta SPA IC50
PI3Kδ (p110δ/p85α) Recombinant Human Protein, sequence (O00329 whole entry): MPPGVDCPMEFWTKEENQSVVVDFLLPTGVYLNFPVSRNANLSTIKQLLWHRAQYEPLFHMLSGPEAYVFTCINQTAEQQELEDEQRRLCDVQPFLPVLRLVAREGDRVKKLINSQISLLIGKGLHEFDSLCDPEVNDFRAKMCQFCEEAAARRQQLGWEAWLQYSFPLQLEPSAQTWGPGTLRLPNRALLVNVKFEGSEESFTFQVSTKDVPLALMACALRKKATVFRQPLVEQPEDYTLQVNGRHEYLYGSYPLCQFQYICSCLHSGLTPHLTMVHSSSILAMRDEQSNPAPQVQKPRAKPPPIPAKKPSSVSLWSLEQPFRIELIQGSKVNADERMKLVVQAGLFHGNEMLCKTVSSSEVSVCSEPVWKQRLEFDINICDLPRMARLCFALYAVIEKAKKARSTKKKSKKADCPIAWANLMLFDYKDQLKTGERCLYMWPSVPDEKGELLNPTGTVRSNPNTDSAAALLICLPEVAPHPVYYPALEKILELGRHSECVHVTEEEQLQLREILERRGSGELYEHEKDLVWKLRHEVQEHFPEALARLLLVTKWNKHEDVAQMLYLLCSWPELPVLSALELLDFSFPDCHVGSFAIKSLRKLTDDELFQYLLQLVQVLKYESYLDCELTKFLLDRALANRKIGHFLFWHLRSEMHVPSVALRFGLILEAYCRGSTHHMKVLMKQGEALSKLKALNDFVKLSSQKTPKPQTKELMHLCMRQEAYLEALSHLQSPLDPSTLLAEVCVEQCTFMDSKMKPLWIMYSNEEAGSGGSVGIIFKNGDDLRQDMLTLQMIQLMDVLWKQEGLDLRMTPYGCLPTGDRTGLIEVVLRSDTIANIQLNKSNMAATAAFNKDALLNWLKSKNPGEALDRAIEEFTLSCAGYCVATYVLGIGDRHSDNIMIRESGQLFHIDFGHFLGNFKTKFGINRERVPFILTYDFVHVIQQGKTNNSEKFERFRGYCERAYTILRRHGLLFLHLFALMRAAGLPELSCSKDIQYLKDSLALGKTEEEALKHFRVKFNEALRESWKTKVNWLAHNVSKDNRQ
PI3Kδ (p110δ/p85α) Recombinant Human Protein, sequence (P27986 whole entry partner): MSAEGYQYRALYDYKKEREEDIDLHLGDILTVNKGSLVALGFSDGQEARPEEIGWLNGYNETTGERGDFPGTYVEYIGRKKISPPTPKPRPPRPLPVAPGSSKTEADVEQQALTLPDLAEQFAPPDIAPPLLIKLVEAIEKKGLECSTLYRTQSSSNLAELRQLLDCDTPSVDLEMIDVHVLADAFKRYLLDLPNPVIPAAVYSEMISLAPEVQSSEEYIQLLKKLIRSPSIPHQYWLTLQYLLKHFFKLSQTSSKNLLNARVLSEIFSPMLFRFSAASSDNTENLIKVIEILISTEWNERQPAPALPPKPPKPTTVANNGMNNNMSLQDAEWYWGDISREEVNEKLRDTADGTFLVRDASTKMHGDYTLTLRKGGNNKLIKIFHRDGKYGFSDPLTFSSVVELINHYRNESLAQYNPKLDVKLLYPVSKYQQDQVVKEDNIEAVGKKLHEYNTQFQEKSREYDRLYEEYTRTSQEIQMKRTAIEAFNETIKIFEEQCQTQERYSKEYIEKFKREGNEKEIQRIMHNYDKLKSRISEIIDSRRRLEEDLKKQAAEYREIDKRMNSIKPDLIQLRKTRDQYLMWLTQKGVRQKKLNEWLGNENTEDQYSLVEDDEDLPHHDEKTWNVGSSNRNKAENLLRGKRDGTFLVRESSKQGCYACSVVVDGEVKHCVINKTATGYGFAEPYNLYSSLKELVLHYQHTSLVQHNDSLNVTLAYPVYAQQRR

[3] = tested on: Phosphorylated Ribosomal Protein S6 (RPS6); assay: THP-1 RPS6 ELISA Assay; format: cell-based, Human; conditions: THP-1 cells, serum starved, 2 hours with compound, 10 nM MCP-1 for 15 minutes; read-out: THP p-RPS6 ELISA IC50
Protocol: To measure the Phosphorylated Ribosomal Protein S6 (RPS6) in cell lysates, THP-1 cells (Human Acute Monocytic Leukemia) are purchased from ATCC (Manassas, Va.) and maintained in RPMI with 10% FBS (Gibco/Life Technologies, Carlsbad, Calif.). For the assay, THP-1 cells are serum starved overnight in RPMI, then plated in RPMI (2×10^5 cells/well in 90 μL) into 96-well flat-bottom tissue culture treated plates (Corning, Corning, N.Y.), in the presence or absence of a concentration range of test compounds. Covered plates are incubated for 2 hours at 37° C., 5% CO2 then treated with or without 10 nM MCP-1 (MYBioSource, San Diego, Calif.) for 15 minutes at 37° C., 5% CO2. Plates are centrifuged at 1600 RPM and supernatants are removed. Cells are lysed in Lysis Buffer (Cell Signaling, Danvers, Mass.) with Protease Inhibitor (Calbiochem/EMD, Germany), PMSF (Sigma, St Louis Mo.), HALTS (Thermo Fisher, Rockford, Ill.) for 30 min on wet ice. Cell lysates are frozen at −80° C. before testing. The lysates are tested in the Human/Mouse/Rat Phospho-RPS6 ELISA (R&D Systems, Inc. Minn, Minn.). The plate is measured using a microplate reader (SpectraMax M5-Molecular Devices, LLC Sunnyvale, Calif.) set to 450 nm with a wavelength correction of 540. […]

PI3Kγ (p110γ) Recombinant Human Protein, sequence (P48736 whole entry): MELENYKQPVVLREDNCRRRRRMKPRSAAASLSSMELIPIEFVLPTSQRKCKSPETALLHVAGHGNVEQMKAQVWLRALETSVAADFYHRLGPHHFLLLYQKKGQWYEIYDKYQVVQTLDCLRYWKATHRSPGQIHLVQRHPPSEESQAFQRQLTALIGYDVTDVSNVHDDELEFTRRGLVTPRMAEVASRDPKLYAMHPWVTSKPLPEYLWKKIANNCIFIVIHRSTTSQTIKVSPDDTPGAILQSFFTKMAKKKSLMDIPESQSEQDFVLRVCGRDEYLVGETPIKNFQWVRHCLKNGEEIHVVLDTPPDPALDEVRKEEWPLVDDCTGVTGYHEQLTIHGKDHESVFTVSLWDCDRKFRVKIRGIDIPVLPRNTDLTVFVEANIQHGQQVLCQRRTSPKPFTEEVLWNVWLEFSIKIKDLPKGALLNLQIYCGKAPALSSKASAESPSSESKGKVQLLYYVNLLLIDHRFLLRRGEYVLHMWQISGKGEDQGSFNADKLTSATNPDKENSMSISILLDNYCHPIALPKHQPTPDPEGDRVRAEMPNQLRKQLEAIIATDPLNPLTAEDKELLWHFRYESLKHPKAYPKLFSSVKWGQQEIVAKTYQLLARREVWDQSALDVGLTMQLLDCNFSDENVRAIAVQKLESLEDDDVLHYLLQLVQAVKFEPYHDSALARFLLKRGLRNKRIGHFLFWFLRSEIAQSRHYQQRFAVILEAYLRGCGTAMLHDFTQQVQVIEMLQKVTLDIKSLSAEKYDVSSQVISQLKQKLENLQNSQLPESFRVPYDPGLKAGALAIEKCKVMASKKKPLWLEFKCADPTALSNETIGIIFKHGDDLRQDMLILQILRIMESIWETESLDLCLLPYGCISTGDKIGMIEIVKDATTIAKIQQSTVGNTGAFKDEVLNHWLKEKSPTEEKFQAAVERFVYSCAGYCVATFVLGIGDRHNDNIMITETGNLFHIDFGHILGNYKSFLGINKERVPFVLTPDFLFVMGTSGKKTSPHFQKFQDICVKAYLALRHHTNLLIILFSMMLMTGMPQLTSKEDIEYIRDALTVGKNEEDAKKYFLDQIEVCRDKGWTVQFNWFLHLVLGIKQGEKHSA

Molecule | IC50 [1] [nM] | IC50 [2] [nM] | IC50 [3] [nM]
CP(C)(=O)c1cncc(-c2ccc3nc(-c4nc5ccccc5[nH]4)oc3c2)c1 [Example 72, 2-(1H-Benzo[d]imidazol-2-yl)-6-(5-(dimethyl-phosphoryl)pyridin-3-yl)benzo[d]oxazole bis(trifluoroacetate)] | < 250 | < 5000 | 
CCS(=O)(=O)N(C)c1cncc(-c2ccc3nc(-c4nc5ccccc5[nH]4)oc3c2)c1 [Example 73, N-(5-(2-(1H-Benzo [d]imidazol-2-yl)benzo [d]oxazol-6-yl)pyridin-3-yl)-N-methylethanesulfonamide bis(trifluoroacetate)] | < 250 | < 5000 | 
OC(c1cncc(-c2ccc3nc(-c4nc5ccccc5[nH]4)oc3c2)c1)C(F)(F)F (centres unmarked) [Example 74, 1-(5-(2-(1H-Benzo [d]imidazol-2-yl)benzo [d]oxazol-6-yl)pyridin-3-yl)-2,2,2-trifluoroethanol bis(trifluoroacetate)] | < 250 | < 250 | 
O=S(=O)(CC(F)(F)F)Nc1cc(-c2ccc3nc(-c4nc5ccccc5[nH]4)oc3c2)cnc1F [Example 75, N-(5-(2-(1H-Benzo [d]imidazol-2-yl)benzo[d]oxazol-6-yl)-2-fluoropyridin-3-yl)-2,2,2-trifluoro-ethanesulfonamide bis(trifluoroacetate)] | < 250 | < 250 | 
Cc1ncc(-c2ccc3nc(-c4nc5ccccc5[nH]4)oc3c2)cc1NS(=O)(=O)CC(F)(F)F [Example 76, N-(5-(2-(1H-Benzo [d]imidazol-2-yl)benzo[d]oxazol-6-yl)-2-methylpyridin-3-yl)-2,2,2-trifluoro-ethanesulfonamide bis(trifluoroacetate)] | < 250 | < 250 | 
O=S(=O)(CC(F)(F)F)Nc1cncc(-c2ccc3nc(-c4nc5ccccc5[nH]4)oc3c2)c1 [Example 77, N-(5-(2-(1H-Benzo [d]imidazol-2-yl)benzo[d]oxazol-6-yl)pyridin-3-yl)-2,2,2-trifluoro-ethanesulfonamide bis(trifluoroacetate)] | < 250 | < 1000 | 
CCS(=O)(=O)Nc1cc(-c2ccc3nc(-c4nc5ccccc5[nH]4)oc3c2)ncc1F [Example 78, N-(2-(2-(1H-Benzo [d]imidazol-2-yl)benzo[d]oxazol-6-yl)-5-fluoropyridin-4-yl) ethanesulfonamide bis(trifluoroacetate)] | < 5000 | < 5000 | 
CCS(=O)(=O)Nc1cc(-c2ccc3nc(-c4nc5ccccc5[nH]4)oc3c2)cnc1OC [Example 79, N-(5-(2-(1H-Benzo [d]imidazol-2-yl)benzo[d]oxazol-6-yl)-2-methoxypyridin-3-yl)ethanesulfonamide bis(trifluoroacetate)] | < 250 | < 250 | 
CCS(=O)(=O)Nc1cc(-c2ccc3nc(-c4nc5ccccc5[nH]4)oc3c2)cc(F)c1OC [Example 80, N-(5-(2-(1H-Benzo [d]imidazol-2-yl)benzo[d]oxazol-6-yl)-3-fluoro-2-methoxyphenyl) ethanesulfonamide bis(trifluoroacetate)] | < 250 | < 5000 | 
N-(5-(2-(1H- Benzo[d]imidazol-2- yl)benzo[d]oxazol- 6-yl)pyridin-3- yl)ethanesulfonamide [Example 18] |  | < 1000 | ≥ 5000
